Measurements as given in ChEMBL document CHEMBL1201862, “PubChem BioAssay data set” (2004).
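Cells were grown in 96-well plates and exposed to each compound for 48 hours at five concentrations; endpoints were interpolated linearly between bracketing concentrations, or set to the highest concentration if not reached. GI50: concentration for 50% inhibition of growth.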 Active and inactive are the calls of the source. No stated cut-off is given here; in the data, active = GI50 up to about 1.1 µM and inactive = higher.

Experiments:
Test in all cases: growth of human tumour cells (NCI), 48 h
786-0 = system: 786-0
BT-549 = system: BT-549
CCRF-CEM = system: CCRF-CEM
HCT-15 = system: HCT-15
LOX IMVI = system: LOX IMVI
MDA-MB-231 = system: MDA-MB-231
MDA-MB-435 = system: MDA-MB-435
Malme-3M = system: Malme-3M
NCI-H226 = system: NCI-H226
NCI-H23 = system: NCI-H23
OVCAR-3 = system: OVCAR-3
PC-3 = system: PC-3
RPMI-8226 = system: RPMI-8226
RXF 393 = system: RXF 393
SF-268 = system: SF-268
SK-MEL-5 = system: SK-MEL-5
SK-OV-3 = system: SK-OV-3
TK-10 = system: TK-10
U-251 = system: U-251
UACC-62 = system: UACC-62

Structure (SMILES) | GI50 (786-0) | GI50 (BT-549) | GI50 (CCRF-CEM) | GI50 (HCT-15) | GI50 (LOX IMVI) | GI50 (MDA-MB-231) | GI50 (MDA-MB-435) | GI50 (Malme-3M) | GI50 (NCI-H226) | GI50 (NCI-H23) | GI50 (OVCAR-3) | GI50 (PC-3) | GI50 (RPMI-8226) | GI50 (RXF 393) | GI50 (SF-268) | GI50 (SK-MEL-5) | GI50 (SK-OV-3) | GI50 (TK-10) | GI50 (U-251) | GI50 (UACC-62)
O=c1c(F)cn(Cc2c(Cl)cccc2Cl)c(=O)n1Cc1c(Cl)cccc1Cl | > 31.6 µM (inactive) | > 31.6 µM (inactive) | 27 µM (inactive) | > 31.6 µM | > 31.6 µM (inactive) | > 31.6 µM (inactive) | 29.6 µM (inactive) | > 31.6 µM (inactive) | > 71.6 µM (inactive) | 27.7 µM (inactive) | > 31.6 µM (inactive) | 17.3 µM (inactive) | > 31.6 µM (inactive) | 19.7 µM (inactive) | > 31.6 µM (inactive) | 18.1 µM (inactive) | > 31.6 µM (inactive) | > 31.6 µM (inactive) | > 31.6 µM (inactive) | 26 µM (inactive)
CCCCCCCCCCCC(=O)NCc1ccc(OC(=O)CCCCCCCCCCC)c(OC)c1 | > 100 µM (inactive) | > 100 µM (inactive) | 1.34 µM (inactive) | > 100 µM | 5.42 µM (inactive) | > 100 µM (inactive) | > 75.2 µM (inactive) | > 100 µM (inactive) | > 100 µM (inactive) | 32.8 µM (inactive) | 31.9 µM (inactive) | 15.1 µM (inactive) | 33.5 µM (inactive) | > 100 µM (inactive) | > 54.1 µM (inactive) | > 63 µM (inactive) | > 100 µM (inactive) | > 100 µM (inactive) | > 100 µM (inactive) | > 96.4 µM (inactive)
CN(C)c1ccc(/C=C(\NC(=O)c2ccccc2)C(=O)NC(Cc2c[nH]c3ccccc23)C(=O)O)cc1 (stereo not given) | > 100 µM (inactive) | > 100 µM (inactive) | > 100 µM (inactive) | > 100 µM | > 100 µM (inactive) | > 100 µM (inactive) | > 100 µM (inactive) | > 100 µM (inactive) | > 100 µM (inactive) | > 100 µM (inactive) | > 100 µM (inactive) | > 100 µM (inactive) | > 100 µM (inactive) | > 100 µM (inactive) | > 100 µM (inactive) | > 100 µM (inactive) | > 100 µM (inactive) | > 100 µM (inactive) | > 100 µM (inactive) | > 100 µM (inactive)
CN(C)CCNCc1ccc2c(-c3ccccc3)nc3cc(Cl)c(Cl)cc3n12 | 5.96 µM (inactive) | 16.4 µM (inactive) | 1.3 µM (inactive) | 9.62 µM | 7.48 µM (inactive) | 10.2 µM (inactive) | 8.69 µM (inactive) | 17.5 µM (inactive) | 17.9 µM (inactive) | 14.6 µM (inactive) | 17.5 µM (inactive) | 10.9 µM (inactive) | 12.8 µM (inactive) | 4.98 µM (inactive) | 13.9 µM (inactive) | 8.32 µM (inactive) | 6.43 µM (inactive) | 10.9 µM (inactive) | 9.08 µM (inactive) | 8.85 µM (inactive)
Cc1cc(N(CCC#N)CCC#N)ccc1/C=C(\NC(=O)/C=C/c1ccccc1)C(=O)NN | 30.6 µM (inactive) | 25.6 µM (inactive) | > 100 µM (inactive) | > 100 µM | > 100 µM (inactive) | 32.4 µM (inactive) | > 100 µM (inactive) | > 100 µM (inactive) | > 55.6 µM (inactive) | > 65.8 µM (inactive) | > 100 µM (inactive) | > 100 µM (inactive) | > 100 µM (inactive) | > 57.3 µM (inactive) | > 53.2 µM (inactive) | > 79.6 µM (inactive) | 31 µM (inactive) | > 51.3 µM (inactive) | 26 µM (inactive) | > 91 µM (inactive)
COc1ccc2oc(S(=O)(=O)N3CC(CCl)c4ccc([N+](=O)[O-])cc43)cc2c1 (stereo not given) | 0.0959 µM (active) | 0.351 µM (active) | 0.45 µM (active) | 0.0703 µM | 0.155 µM (active) | 0.29 µM (active) | 0.0177 µM (active) | 0.767 µM (active) | 0.127 µM (active) | 0.36 µM (active) | 0.108 µM (active) | 0.116 µM (active) | 0.107 µM (active) | 0.0345 µM (active) | 0.299 µM (active) | 0.0752 µM (active) | 0.105 µM (active) | 15.1 µM (inactive) | 0.0955 µM (active) | 0.055 µM (active)
O=[N+]([O-])c1ccc2c3c1[C@@H]1O[C@@H]1c1cccc(c1-3)[C@@H]1O[C@H]21 | 2.47 µM (inactive) | 6.11 µM (inactive) | 2.45 µM (inactive) | 2.57 µM | 1.27 µM (inactive) | 6.44 µM (inactive) | 2.08 µM (inactive) | 3.49 µM (inactive) | 26.6 µM (inactive) | 3.94 µM (inactive) | 3.05 µM (inactive) | 7.91 µM (inactive) | 1.88 µM (inactive) | 4.17 µM (inactive) | 2.56 µM (inactive) | 10.7 µM (inactive) | 17.4 µM (inactive) | 7.78 µM (inactive) | 4.08 µM (inactive) | 7.14 µM (inactive)
